Data set [1] is described as follows: Conductivity determination (Malvern Zetasizer Nano). Type of data set: physicochemical. On the procedure: A range of standards having sodium chloride concentrations of 0, 75, 100, 150, 250 and 300 mM were prepared from a stock solution of 1500 mM sodium chloride by dilution in water for injection.
Immunogenic compositions were prepared using M72 with two N-terminal His residues according to the procedures provided in Example 9. To investigate the contribution from the antigen itself and any residual materials in the purified bulk, placebo lyophilisation cakes were also prepared by excluding the antigen component.
Using a Malvern Zetasizer Nano and 1.5 ml of each sample in folded capillary cells, a voltage of 30 to 150 V (determined automatically by the instrument) was applied and the conductivity determined.

Data set [2] has as its system chicken Red Blood cells (RBC). Kind of data set: QS21 lytic activity haemolysis assay (limit test). The note with it: RBC 30 min RT, OD at 540 nm. Type of data set: cell-based. As for the experimental part:
QS21 lytic activity was measured by a haemolysis assay using chicken Red Blood cells (RBC). RBC were centrifuged at 550 g at 4° C. Supernatant was discarded. The pellet was carefully resuspended in PBS buffer to reach the initial volume and the same operation was repeated until supernatant was no longer red (generally 3 times). The pellet was stored at 4° C. for 3 to 4 days maximum if not used directly (and washed again the day it is used) or was diluted around 10 times in buffer if used the same day.
A QS21 dose range curve was prepared in ASA buffer (in salt or in sorbitol buffer following the ASA sample tested) extemporaneously and the adjuvant samples (containing a 50 ug or 90 ug equivalent of QS21 meaning the equivalent of 500 ul or 900 ul ASA) were prepared. Final volume was adjusted to 900 ul in standards and samples with adequate buffer (containing or not sorbitol as a function of the buffer of the sample tested). Due to its opalescence, ASA interferes with optical density (OD). ASA “blanks” were thus prepared and their OD was subtracted from the OD of ASA tested samples. Those blanks corresponded to the same ASA volume as the volume tested in samples, but adjusted to 1 ml with buffer. No RBC were added to these blanks. Standards and samples were then incubated with RBC (100 ul of diluted RBC added to 900 ul of standards and samples) for 30 minutes at room temperature (RT). Samples were then centrifuged 5 minutes at 900 g. Optical density at 540 nm was measured after centrifugation.
Determination of lytic activity was carried out by a limit test.
1. Limit of detection (LOD) was defined as the lowest concentration of QS21 leading to an OD: • Higher than the base level (OD>0.1) • Around three times higher than OD's buffer (the “0 ug” QS21) • In the ascendant part of the curve • Determined for each test.
2. QS21 lytic activity was held to be positive in the adjuvant samples if the OD for the adjuvant sample was greater than the ODLOD).

The format of data set [3] is physicochemical. The note with it: 100 ug/ml; pH 6.1, 7.5, 8.5; 0, 150, 450 mM NaCl; 24 hours at 4° C. or 25° C.
Data set [4] is classed as physicochemical. Particulars: 100 ug/ml; pH 6.1, 7.5, 8.5; 0, 150, 450 mM NaCl; 24 hours at 4° C. or 25° C. This is another data set of the same source.
Data set [5] concerns M72-specific rabbit polyclonal antibody and M72(Mtb39)-specific mouse monoclonal antibody. Kind of data set: M72 antigenicity sandwich ELISA, varied pH and NaCl (Example 10). Type of data set: binding. Particulars: pH 7.5 or 8.5; sodium chloride 150 mM or greater.
The format of data set [6] is physicochemical. The note with it: pH 7.5 or 8.5; sodium chloride 150 mM or greater.
A short description of data set [7]: Nephlometry of Rv1196 compositions with varied pH and NaCl after storage. The format is physicochemical. The note with it: 100 ug/ml; pH 6.1, 7.5, 8.5; 0, 150, 450 mM NaCl; 24 hours at 4° C. or 25° C. As for the experimental part:
Rv1196 protein (SEQ ID No: 1) was obtained from Corixa Corporation and was diluted to a concentration of 100 ug/ml in three different buffers (10 mM phosphate buffer at pH 6.1, 20 mM Tris buffer at pH 7.5 and 20 mM Tris buffer at pH 8.5) containing final sodium chloride concentrations of 0, 150 and 450 mM.
Samples were stored for 24 hours at 4° C. or 25° C. before analysis.
Nephlometry was performed using a Nepheloskan® Ascent, available from Thermo Fischer Scientific. Analysis was performed in UV transparent Costar® micro-plates available from Corning Inc (USA).

A short description of data set [8]: DLS of Rv1196 compositions with varied pH and NaCl after storage. Type of data set: physicochemical. The note with it: 100 ug/ml; pH 8.5.

`[Cl-].[Na+]` [sodium chloride]: the Conductivity came to 8.2 mS/cm in data set [1] (75 mM sodium chloride standard in water for injection) and 30.0 mS/cm in data set [1] (300 mM sodium chloride standard in water for injection).
On to QS21, for which the OD in data set [2] (0.5 ug QS21 standard) is 0.052; in data set [2] (0.6 ug QS21 standard), 0.073; in data set [2] (0.7 ug QS21 standard), 0.091; in data set [2] (0.8 ug QS21 standard) it was 0.096; in data set [2] (0.9 ug QS21 standard) it was 0.12.

B1: Mtb72f: fusion protein antigen, Mtb72f with 6 his residues, SEQ ID No: 11 (protein)
chain: MHHHHHHTAASDNFQLSQGGQGFAIPIGQAMAIAGQIRSGGGSPTVHIGPTAFLGLGVVDNNGNGARVQRVVGSAPAASLGISTGDVITAVDGAPINSATAMADALNGHHPGDVISVTWQTKSGGTRTGNVTLAEGPPAEFMVDFGALPPEINSARMYAGPGSASLVAAAQMWDSVASDLFSAASAFQSVVWGLTVGSWIGSSAGLMVAAASPYVAWMSVTAGQAELTAAQVRVAAAAYETAYGLTVPPPVIAENRAELMILIATNLLGQNTPAIAVNEAEYGEMWAQDAAAMFGYAAATATATATLLPFEEAPEMTSAGGLLEQAAAVEEASDTAAANQLMNNVPQALQQLAQPTQGTTPSSKLGGLWKTVSPHRSPISNMVSMANNHMSMTNSGVSMTNTLSSMLKGFAPAAAAQAVQTAAQNGVRAMSSLGSSLGSSGLGGGVAANLGRAASVGSLSVPQAWAAANQAVTPAARALPLTSLTSAAERGPGQMLGGLPVGQMGARAGGGLSGVLRVPPRPYVMPHSPAAGDIAPPALSQDRFADFPALPLDPSAMVAQVGPQVVNINTKLGYNNAVGAGTGIVIDPNGVVLTNNHVIAGATDINAFSVGSGQTYGVDVVGYDRTQDVAVLQLRGAGGLPSAAIGGGVAVGEPVVAMGNSGGQGGTPRAVPGRVVALGQTVQASDSLTGAEETLNGLIQFDAAIQPGDSGGPVVNGLGQVVGMNTAAS
modifications: Mtb72f fusion with 6 additional his residues
For B1, in data set [3], the “nephlometry trend with salt concentration and pH” value is “sensitive to salt concentration and pH”. The “DLS size trend with salt concentration and pH” value in data set [4] is “sensitive to salt concentration and pH”.

B2: M72: fusion protein antigen comprising Rv1196, M72 with two N-terminal His residues, SEQ ID No: 7 (protein)
chain: MHHTAASDNFQLSQGGQGFAIPIGQAMAIAGQIRSGGGSPTVHIGPTAFLGLGVVDNNGNGARVQRVVGSAPAASLGISTGDVITAVDGAPINSATAMADALNGHHPGDVISVTWQTKSGGTRTGNVTLAEGPPAEFMVDFGALPPEINSARMYAGPGSASLVAAAQMWDSVASDLFSAASAFQSVVWGLTVGSWIGSSAGLMVAAASPYVAWMSVTAGQAELTAAQVRVAAAAYETAYGLTVPPPVIAENRAELMILIATNLLGQNTPAIAVNEAEYGEMWAQDAAAMFGYAAATATATATLLPFEEAPEMTSAGGLLEQAAAVEEASDTAAANQLMNNVPQALQQLAQPTQGTTPSSKLGGLWKTVSPHRSPISNMVSMANNHMSMTNSGVSMTNTLSSMLKGFAPAAAAQAVQTAAQNGVRAMSSLGSSLGSSGLGGGVAANLGRAASVGSLSVPQAWAAANQAVTPAARALPLTSLTSAAERGPGQMLGGLPVGQMGARAGGGLSGVLRVPPRPYVMPHSPAAGDIAPPALSQDRFADFPALPLDPSAMVAQVGPQVVNINTKLGYNNAVGAGTGIVIDPNGVVLTNNHVIAGATDINAFSVGSGQTYGVDVVGYDRTQDVAVLQLRGAGGLPSAAIGGGVAVGEPVVAMGNSGGQGGTPRAVPGRVVALGQTVQASDSLTGAEETLNGLIQFDAAIQPGDAGGPVVNGLGQVVGMNTAAS
modifications: M72 fusion with 2 additional his residues
Take B2: in data set [5], the change in antigenicity result is “reduction in antigenicity”. In addition, the “change in antigen size” value in data set [6] was “clear increase in antigen size”.

B3: Rv1196: Rv1196 protein (SEQ ID No: 1) from Mycobacterium tuberculosis H37Rv, obtained from Corixa Corporation (protein)
chain: MVDFGALPPEINSARMYAGPGSASLVAAAQMWDSVASDLFSAASAFQSVVWGLTVGSWIGSSAGLMVAAASPYVAWMSVTAGQAELTAAQVRVAAAAYETAYGLTVPPPVIAENRAELMILIATNLLGQNTPAIAVNEAEYGEMWAQDAAAMFGYAAATATATATLLPFEEAPEMTSAGGLLEQAAAVEEASDTAAANQLMNNVPQALQQLAQPTQGTTPSSKLGGLWKTVSPHRSPISNMVSMANNHMSMTNSGVSMTNTLSSMLKGFAPAAAAQAVQTAAQNGVRAMSSLGSSLGSSGLGGGVAANLGRAASVGSLSVPQAWAAANQAVTPAARALPLTSLTSAAERGPGQMLGGLPVGQMGARAGGGLSGVLRVPPRPYVMPHSPAAG
modifications: Mycobacterium tuberculosis H37Rv
As to B3, the “clarity by nephlometry with increasing salt concentration” value in data set [7] is recorded as “sensitive to salt concentration”. Moreover, the “particle size by DLS” value in data set [8] is given as “concentration of sodium chloride impacts the measured particle size”.

The record behind these values is patent US9352030B2, “Mycobacterium antigenic composition” (priority 2010, dated 2016).
